Earlier results, collected in patent publication US20250161451A1, “ULTRASOUND-RESPONSIVE NANOSCALE DELIVERY PLATFORM FOR USE IN THE TREATMENT OF BIOFILM-ASSOCIATED DISEASES” (priority 2023, published 2025).

System: MRSA biofilms
Conditions: co-delivery with stimulated phase-shift nanodroplet platform, in vitro

For `CN[C@H](CC(C)C)C(=O)N[C@H]1C(=O)N[C@@H](CC(N)=O)C(=O)N[C@H]2C(=O)N[C@H]3C(=O)N[C@H](C(=O)N[C@H](C(=O)O)c4cc(O)cc(O)c4-c4cc3ccc4O)[C@H](O)c3ccc(c(Cl)c3)Oc3cc2cc(c3O[C@@H]2O[C@H](CO)[C@@H](O)[C@H](O)[C@H]2O[C@H]2C[C@](C)(N)[C@H](O)[C@H](C)O2)Oc2ccc(cc2Cl)[C@H]1O` [vancomycin], the “bactericidal effect on MRSA biofilms” value is listed as “strong but incomplete bactericidal effect”.
